# Test system: Mtb
# Assay type: cell-based, Mycobacterium tuberculosis
compound,measurement,setting,value
C[C@H]1COC2(CCN(c3nc(=O)c4cc(C(F)(F)F)cc([N+](=O)[O-])c4s3)CC2)O1 [BTZ-043],effect on mycobacterial growth on agar containing BTZ-043,"1 ng/mL BTZ-043, bacteria from BTZ-043 treated BALB/c mice, untreated mice and H37Rv",did not restrict mycobacterial viability
same,growth of Mtb from drug treated IL-13tg mice on agar containing BTZ-043,"5 or 10 ng/mL BTZ-043, IL-13tg mice 250 mg/kg/day 10 days",did not grow
same,mycobacterial growth on agar containing BTZ-043,"5 or 10 ng/mL BTZ-043, bacteria from BTZ-043 treated BALB/c mice, untreated mice and H37Rv",No growth
